The structures appear in SMILES notation. Some results are limits rather than exact numbers.

The test system of this test is ATF4 luciferase reporter in HEK293T cells. Kind of test: ATF4-Luc assay (ATF4 luciferase reporter, tunicamycin-treated HEK293T cells). Conditions: Homo sapiens, HEK-293T; HEK293T cells carrying the ATF4 luciferase reporter, 1 μg/mL tunicamycin, 7 hours. Type of test: cell-based, human. (Reporter assays use an easily measured gene product as a stand-in for the process of interest.)
Regarding `O=C(COc1ccc(F)c(OC(F)(F)F)c1)NC12CCC(NC(=O)COc3ccc(Cl)c(F)c3)(CC1)[C@@H](O)C2` [Compound 820, 2-(4-chloro-3-fluorophenoxy)-N-[(2S)-4-{2-[4-fluoro-3-(trifluoromethoxy)phenoxy]acetamido}-2-hydroxybicyclo[2.2.2]octan-1-yl]acetamide], the EC50 is less than 0.01 µM.

On to `O=C(COc1ccc(C(F)(F)F)c(F)c1)NC12CCC(NC(=O)COc3ccc(C(F)(F)F)c(F)c3)(CC1)[C@@H](O)C2` [Compound 821, N,N′-[(2S)-2-hydroxybicyclo[2.2.2]octane-1,4-diyl]bis{2-[3-fluoro-4-(trifluoromethyl)phenoxy]acetamide}], for which the EC50 was less than 0.01 µM.

On to `O=C(COc1ccc(F)c(C(F)(F)F)c1)NC12CCC(NC(=O)COc3ccc(C(F)(F)F)c(F)c3)(CC1)[C@@H](O)C2` [Compound 822, 2-[3-fluoro-4-(trifluoromethyl)phenoxy]-N-[(2S)-4-{2-[4-fluoro-3-(trifluoromethyl)phenoxy]acetamido}-2-hydroxybicyclo[2.2.2]octan-1-yl]acetamide], for which the EC50 is less than 0.01 µM.

As for `O=C(COc1ccc(F)c(C(F)(F)F)c1)NC12CCC(NC(=O)COc3ccc(F)c(C(F)(F)F)c3)(CC1)[C@@H](O)C2` [Compound 823, N,N′-[(2S)-2-hydroxybicyclo[2.2.2]octane-1,4-diyl]bis{2-[4-fluoro-3-(trifluoromethyl)phenoxy]acetamide}], the EC50 is less than 0.01 µM.

With `O=C(COc1cccc(C(F)(F)F)n1)NC12CCC(NC(=O)COc3ccc(Cl)c(F)c3)(CC1)[C@@H](O)C2` [Compound 824, 2-(4-chloro-3-fluorophenoxy)-N-[(2S)-2-hydroxy-4-(2-{[6-(trifluoromethyl)pyridin-2-yl]oxy}acetamido)bicyclo[2.2.2]octan-1-yl]acetamide], the EC50 lay in the range of 0.01 to 0.05 µM.

Take `O=C(COc1cccc(C(F)(F)F)n1)NC12CCC(NC(=O)COc3ccc(Cl)cc3)(CC1)[C@@H](O)C2` [Compound 825, 2-(4-chlorophenoxy)-N-[(2S)-2-hydroxy-4-(2-{[6-(trifluoromethyl)pyridin-2-yl]oxy}acetamido)bicyclo[2.2.2]octan-1-yl]acetamide]: the EC50 fell in the range of 0.05 to 0.25 µM.

Turning to `CS(=O)(=O)c1cc(OCC(=O)NC23CCC(NC(=O)COc4ccc(Cl)c(F)c4)(CC2)[C@@H](O)C3)ccc1F` [Compound 826, 2-(4-chloro-3-fluorophenoxy)-N-[(2S)-4-{2-[4-fluoro-3-(methanesulfonyl)phenoxy]acetamido}-2-hydroxybicyclo[2.2.2]octan-1-yl]acetamide], the EC50 fell in the range of 0.05 to 0.25 µM.

Consider `O=C(COc1ccc(Cl)c(F)c1)NC12CC(NC(=O)C(CCO)Oc3ccc(Cl)cc3)(C1)C2` (stereo not shown) [Compound 827, N-{3-[2-(4-chloro-3-fluorophenoxy)acetamido]bicyclo[1.1.1]pentan-1-yl}-2-(4-chlorophenoxy)-4-hydroxybutanamide], for which the EC50 fell in the range of 0.05 to 0.25 µM.

As for `O=C(COc1ccc(Cl)c(F)c1)NC12CCC(NC(=O)COc3ccc(F)c(C(F)(F)F)c3)(CC1)[C@@H](O)C2` [Compound 828, 2-(4-chloro-3-fluorophenoxy)-N-[(3S)-4-{2-[4-fluoro-3-(trifluoromethyl)phenoxy]acetamido}-3-hydroxybicyclo[2.2.2]octan-1-yl]acetamide], the EC50 is less than 0.01 µM.

Turning to `O=C(COc1ccc(F)c(F)c1)NC12CCC(NC(=O)COc3ccc(F)c(C(F)(F)F)c3)(CC1)[C@@H](O)C2` [Compound 829, 2-(3,4-difluorophenoxy)-N-[(3S)-4-{2-[4-fluoro-3-(trifluoromethyl)phenoxy]acetamido}-3-hydroxybicyclo[2.2.2]octan-1-yl]acetamide], the EC50 is less than 0.01 µM.

Take `O=C(COc1ccc(Cl)cc1)NC12CCC(NC(=O)COc3ccc(F)c(C(F)(F)F)c3)(CC1)[C@@H](O)C2` [Compound 830, 2-(4-chlorophenoxy)-N-[(3S)-4-{2-[4-fluoro-3-(trifluoromethyl)phenoxy]acetamido}-3-hydroxybicyclo[2.2.2]octan-1-yl]acetamide]: the EC50 is less than 0.01 µM.

For `O=C(COc1ccc(F)cc1)NC12CCC(NC(=O)COc3ccc(F)c(C(F)(F)F)c3)(CC1)[C@@H](O)C2` [Compound 831, 2-(4-fluorophenoxy)-N-[(3S)-4-{2-[4-fluoro-3-(trifluoromethyl)phenoxy]acetamido}-3-hydroxybicyclo[2.2.2]octan-1-yl]acetamide], the EC50 is less than 0.01 µM.

Consider `O=C(COc1ccc(Cl)c(F)c1)NC12CCC(NC(=O)COc3ccc(C(F)(F)F)c(F)c3)(CC1)[C@@H](O)C2` [Compound 832, 2-(4-chloro-3-fluorophenoxy)-N-[(3S)-4-{2-[3-fluoro-4-(trifluoromethyl)phenoxy]acetamido}-3-hydroxybicyclo[2.2.2]octan-1-yl]acetamide], for which the EC50 is less than 0.01 µM.

In the case of `O=C(COc1ccc(F)c(F)c1)NC12CCC(NC(=O)COc3ccc(C(F)(F)F)c(F)c3)(CC1)[C@@H](O)C2` [Compound 833, 2-(3,4-difluorophenoxy)-N-[(3S)-4-{2-[3-fluoro-4-(trifluoromethyl)phenoxy]acetamido}-3-hydroxybicyclo[2.2.2]octan-1-yl]acetamide], the EC50 is less than 0.01 µM.

Consider `O=C(COc1ccc(Cl)cc1)NC12CCC(NC(=O)COc3ccc(C(F)(F)F)c(F)c3)(CC1)[C@@H](O)C2` [Compound 834, 2-(4-chlorophenoxy)-N-[(3S)-4-{2-[3-fluoro-4-(trifluoromethyl)phenoxy]acetamido}-3-hydroxybicyclo[2.2.2]octan-1-yl]acetamide], for which the EC50 is less than 0.01 µM.

Consider `O=C(COc1ccc(F)cc1)NC12CCC(NC(=O)COc3ccc(C(F)(F)F)c(F)c3)(CC1)[C@@H](O)C2` [Compound 835, 2-(4-fluorophenoxy)-N-[(3S)-4-{2-[3-fluoro-4-(trifluoromethyl)phenoxy]acetamido}-3-hydroxybicyclo[2.2.2]octan-1-yl]acetamide], for which the EC50 is less than 0.01 µM.

Turning to `O=C(COc1ccc(Cl)cc1)NC12CC(NC(=O)COc3cccc(C(F)(F)F)n3)(C1)C2` [Compound 836, 2-(4-chlorophenoxy)-N-[3-(2-{[6-(trifluoromethyl)pyridin-2-yl]oxy}acetamido)bicyclo[1.1.1]pentan-1-yl]acetamide], the EC50 is 0.25 to 0.5 µM.

As to `O=C(COc1ccc(Cl)cc1)NC12CC(NC(=O)COc3ccc(F)c(F)c3)(C1)C2` [Compound 837, 2-(4-chlorophenoxy)-N-{3-[2-(3,4-difluorophenoxy)acetamido]bicyclo[1.1.1]pentan-1-yl}acetamide], the EC50 is less than 0.01 µM.

As for `O=C(COc1ccc(S(F)(F)(F)(F)F)nc1)NC12CCC(NC(=O)COc3ccc(Cl)c(F)c3)(CC1)[C@@H](O)C2` [Compound 838, 2-(4-chloro-3-fluorophenoxy)-N-[(2S)-2-hydroxy-4-(2-{[6-(pentafluoro-lambda^6-sulfanyl)pyridin-3-yl]oxy}acetamido)bicyclo[2.2.2]octan-1-yl]acetamide], the EC50 was less than 0.01 µM.

With `O=C(COc1ccc(S(F)(F)(F)(F)F)cc1)NC12CCC(NC(=O)COc3ccc(Cl)c(F)c3)(CC1)[C@@H](O)C2` [Compound 839, 2-(4-chloro-3-fluorophenoxy)-N-[(2S)-2-hydroxy-4-{2-[4-(pentafluoro-lambda^6-sulfanyl)phenoxy]acetamido}bicyclo[2.2.2]octan-1-yl]acetamide], the EC50 is less than 0.01 µM.

`O=C(COc1ccccc1)NC12CCC(NC(=O)COc3ccc(Cl)c(F)c3)(CC1)[C@@H](O)C2` [Compound 840, 2-(4-chloro-3-fluorophenoxy)-N-[(2S)-2-hydroxy-4-(2-phenoxyacetamido)bicyclo[2.2.2]octan-1-yl]acetamide]: the EC50 is less than 0.01 µM.

On to `Cc1cc(OCC(=O)NC23CCC(NC(=O)COc4ccc(C(F)(F)F)c(F)c4)(CC2)C[C@@H]3O)ccc1Cl` [Compound 841, 2-(4-chloro-3-methylphenoxy)-N-[(2S)-4-{2-[3-fluoro-4-(trifluoromethyl)phenoxy]acetamido}-2-hydroxybicyclo[2.2.2]octan-1-yl]acetamide], for which the EC50 was less than 0.01 µM.

For `O=C(COc1ccc(C(F)(F)F)c(F)c1)NC12CCC(NC(=O)COc3ccc(F)c(F)c3)(CC1)[C@@H](O)C2` [Compound 842, 2-(3,4-difluorophenoxy)-N-[(2S)-4-{2-[3-fluoro-4-(trifluoromethyl)phenoxy]acetamido}-2-hydroxybicyclo[2.2.2]octan-1-yl]acetamide], the EC50 is less than 0.01 µM.

On to `O=C(COc1ccc(C(F)(F)F)c(F)c1)NC12CCC(NC(=O)COc3ccc(Cl)cc3)(CC1)[C@@H](O)C2` [Compound 843, 2-(4-chlorophenoxy)-N-[(2S)-4-{2-[3-fluoro-4-(trifluoromethyl)phenoxy]acetamido}-2-hydroxybicyclo[2.2.2]octan-1-yl]acetamide], for which the EC50 is less than 0.01 µM.

`O=C(COc1ccc(C(F)(F)F)c(F)c1)NC12CCC(NC(=O)COc3ccc(F)cc3)(CC1)[C@@H](O)C2` [Compound 844, 2-(4-fluorophenoxy)-N-[(2S)-4-{2-[3-fluoro-4-(trifluoromethyl)phenoxy]acetamido}-2-hydroxybicyclo[2.2.2]octan-1-yl]acetamide]: the EC50 was less than 0.01 µM.

For `O=C(COc1ccc(F)c(C(F)(F)F)c1)NC12CCC(NC(=O)COc3ccc(F)c(F)c3)(CC1)[C@@H](O)C2` [Compound 845, 2-(3,4-difluorophenoxy)-N-[(2S)-4-{2-[4-fluoro-3-(trifluoromethyl)phenoxy]acetamido}-2-hydroxybicyclo[2.2.2]octan-1-yl]acetamide], the EC50 was less than 0.01 µM.

Regarding `O=C(COc1ccc(F)c(C(F)(F)F)c1)NC12CCC(NC(=O)COc3ccc(Cl)cc3)(CC1)[C@@H](O)C2` [Compound 846, 2-(4-chlorophenoxy)-N-[(2S)-4-{2-[4-fluoro-3-(trifluoromethyl)phenoxy]acetamido}-2-hydroxybicyclo[2.2.2]octan-1-yl]acetamide], the EC50 was less than 0.01 µM.

Regarding `O=C(COc1ccc(F)c(C(F)(F)F)c1)NC12CCC(NC(=O)COc3ccc(F)cc3)(CC1)[C@@H](O)C2` [Compound 847, 2-(4-fluorophenoxy)-N-[(2S)-4-{2-[4-fluoro-3-(trifluoromethyl)phenoxy]acetamido}-2-hydroxybicyclo[2.2.2]octan-1-yl]acetamide], the EC50 was less than 0.01 µM.

A word on the EC50: it is the concentration that produces a half-maximal response.

Source of the values: patent US20240166652A1, “MODULATORS OF THE INTEGRATED STRESS PATHWAY” (Calico Life Sciences LLC, priority 2017, published 2024).
